Experimental data from ChEMBL document CHEMBL5346860, “Cancer multidrug-resistance reversal by ABCB1 inhibition: A recent update” (Eur J Med Chem, 2022).
Converted amounts (≈) assume the structure as drawn.

Legend:
[1] = target: T1, ATP-dependent translocase ABCB1 (Homo sapiens, UniProt P08183); assay: Inhibition of P-gp1 efflux in human Flp-In-293 cells using rhodamine as substrate assessed as increase in intracellular accumulation of rhodamine 123 preincubated for 30 mins followed by substrate addition and measured for 10 mins by fluorescence based assay; type: cell-based
[2] = target: T1, ATP-dependent translocase ABCB1; assay: Inhibition of P-gp1 efflux in human Flp-In-293 cells using calcein-AM as substrate assessed as increase in intracellular accumulation of calcein-AM preincubated for 30 mins followed by substrate addition and measured for 30 mins by fluorescence based assay; type: cell-based
[3] = target: T1, ATP-dependent translocase ABCB1; assay: Inhibition of ABCB1 efflux pump in human LS180 cells using Rh123 as substrate incubated for 90 mins by fluorescence based assay; type: cell-based
[4] = Antiproliferative activity against daunorubicin-resistant human EPG85-257 cells incubated for 72 hrs by annexin-V-PI staining based flow cytometry; type: functional, EPG85-257RDB
[5] = cells; conditions: Homo sapiens, EPP85-181RDB, 72 h
Description: Antiproliferative activity against daunorubicin-resistant human EPP85-181 cells incubated for 72 hrs by annexin-V-PI staining based flow cytometry

[6] = tested on: L5178Y; assay: Cytotoxicity against multidrug-resistant mouse L5178Y cells expressing ABCB1 assessed as cell growth inhibition incubated for 24 hrs by MTT assay; type: functional, cell-based
[7] = tested on: L5178Y; assay: Cytotoxicity against multi-drug resistant mouse L5178Y cells expressing ABCB1 assessed as cell growth inhibition incubated for 24 hrs by MTT assay; type: functional, cell-based
[8] = target: Multidrug resistance-associated protein 1 (Homo sapiens, UniProt P33527); assay: Inhibition of MRP1 efflux pump in human MCF7 cells assessed as fold increase in vinblastine cellular accumulation; type: cell-based
[9] = target: T1, ATP-dependent translocase ABCB1; assay: Inhibition of P-gp efflux pump in human MCF7 cells assessed as fold increase in vinblastine cellular accumulation; type: cell-based
[10] = target: T2, Broad substrate specificity ATP-binding cassette transporter ABCG2 (Homo sapiens, UniProt Q9UNQ0); assay: Inhibition of BCRP efflux pump in human MCF7 cells assessed as fold increase in vinblastine cellular accumulation; type: cell-based
T2 sequence (Q9UNQ0 whole entry): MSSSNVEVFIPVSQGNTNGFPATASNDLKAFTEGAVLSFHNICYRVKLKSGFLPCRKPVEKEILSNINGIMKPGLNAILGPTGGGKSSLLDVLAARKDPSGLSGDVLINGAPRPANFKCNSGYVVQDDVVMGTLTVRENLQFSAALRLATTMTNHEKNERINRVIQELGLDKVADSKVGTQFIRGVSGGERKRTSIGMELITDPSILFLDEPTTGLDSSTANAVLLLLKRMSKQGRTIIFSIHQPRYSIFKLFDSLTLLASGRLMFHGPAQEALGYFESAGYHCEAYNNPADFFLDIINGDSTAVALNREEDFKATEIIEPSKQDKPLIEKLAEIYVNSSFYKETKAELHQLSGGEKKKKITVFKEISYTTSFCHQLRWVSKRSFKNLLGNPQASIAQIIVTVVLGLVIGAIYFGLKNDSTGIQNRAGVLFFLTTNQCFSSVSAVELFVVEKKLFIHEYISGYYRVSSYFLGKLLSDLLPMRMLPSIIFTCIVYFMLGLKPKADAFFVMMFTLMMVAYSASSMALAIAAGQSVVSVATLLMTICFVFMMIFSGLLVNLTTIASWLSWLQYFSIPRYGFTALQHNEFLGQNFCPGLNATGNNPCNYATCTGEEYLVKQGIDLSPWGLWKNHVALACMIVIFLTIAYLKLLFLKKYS

[11] = tested on: KB-V1; assay: cells; conditions: Homo sapiens, KB-V1, 72 h
Description: Cytotoxicity against human KB-V1 cells assessed as cell growth inhibition incubated for 72 hrs by MTS assay

[12] = tested on: KB 3-1; assay: cells; conditions: Homo sapiens, KB 3-1, 72 h
Description: Cytotoxicity against human KB 3-1 cells assessed as cell growth inhibition incubated for 72 hrs by MTS assay

[13] = Reversal of vincristine resistance in human Flp-In-293 cells expressing ABCB1 assessed as fold change in vincristine IC50 in presence of caffeic acid for 30 mins by fluorescence based assay; type: functional; conditions: 0.5 h
[14] = Reversal of paclitaxel resistance in human Flp-In-293 cells expressing ABCB1 assessed as fold change in paclitaxel IC50 in presence of caffeic acid for 30 mins by fluorescence based assay; type: functional; conditions: 0.5 h
[15] = Reversal of […] in human Flp-In-293 cells expressing ABCB1 assessed as fold change in doxorubicin IC50 in presence of caffeic acid for 30 mins by fluorescence based assay; type: functional; conditions: 0.5 h
[16] = Reversal of vincristine resistance in human Flp-In-293 cells expressing ABCB1 assessed as cell growth inhibition in presence of caffeic acid for 30 mins by fluorescence based assay; type: functional; conditions: Flp-In-293, 0.5 h
[17] = Reversal of paclitaxel resistance in human Flp-In-293 cells expressing ABCB1 assessed as cell growth inhibition in presence of caffeic acid for 30 mins by fluorescence based assay; type: functional; conditions: Flp-In-293, 0.5 h
[18] = Reversal of doxorubicin resistance in human Flp-In-293 cells expressing ABCB1 assessed as cell growth inhibition in presence of caffeic acid for 30 mins by fluorescence based assay; type: functional; conditions: Flp-In-293, 0.5 h

T1 sequence (P08183 whole entry): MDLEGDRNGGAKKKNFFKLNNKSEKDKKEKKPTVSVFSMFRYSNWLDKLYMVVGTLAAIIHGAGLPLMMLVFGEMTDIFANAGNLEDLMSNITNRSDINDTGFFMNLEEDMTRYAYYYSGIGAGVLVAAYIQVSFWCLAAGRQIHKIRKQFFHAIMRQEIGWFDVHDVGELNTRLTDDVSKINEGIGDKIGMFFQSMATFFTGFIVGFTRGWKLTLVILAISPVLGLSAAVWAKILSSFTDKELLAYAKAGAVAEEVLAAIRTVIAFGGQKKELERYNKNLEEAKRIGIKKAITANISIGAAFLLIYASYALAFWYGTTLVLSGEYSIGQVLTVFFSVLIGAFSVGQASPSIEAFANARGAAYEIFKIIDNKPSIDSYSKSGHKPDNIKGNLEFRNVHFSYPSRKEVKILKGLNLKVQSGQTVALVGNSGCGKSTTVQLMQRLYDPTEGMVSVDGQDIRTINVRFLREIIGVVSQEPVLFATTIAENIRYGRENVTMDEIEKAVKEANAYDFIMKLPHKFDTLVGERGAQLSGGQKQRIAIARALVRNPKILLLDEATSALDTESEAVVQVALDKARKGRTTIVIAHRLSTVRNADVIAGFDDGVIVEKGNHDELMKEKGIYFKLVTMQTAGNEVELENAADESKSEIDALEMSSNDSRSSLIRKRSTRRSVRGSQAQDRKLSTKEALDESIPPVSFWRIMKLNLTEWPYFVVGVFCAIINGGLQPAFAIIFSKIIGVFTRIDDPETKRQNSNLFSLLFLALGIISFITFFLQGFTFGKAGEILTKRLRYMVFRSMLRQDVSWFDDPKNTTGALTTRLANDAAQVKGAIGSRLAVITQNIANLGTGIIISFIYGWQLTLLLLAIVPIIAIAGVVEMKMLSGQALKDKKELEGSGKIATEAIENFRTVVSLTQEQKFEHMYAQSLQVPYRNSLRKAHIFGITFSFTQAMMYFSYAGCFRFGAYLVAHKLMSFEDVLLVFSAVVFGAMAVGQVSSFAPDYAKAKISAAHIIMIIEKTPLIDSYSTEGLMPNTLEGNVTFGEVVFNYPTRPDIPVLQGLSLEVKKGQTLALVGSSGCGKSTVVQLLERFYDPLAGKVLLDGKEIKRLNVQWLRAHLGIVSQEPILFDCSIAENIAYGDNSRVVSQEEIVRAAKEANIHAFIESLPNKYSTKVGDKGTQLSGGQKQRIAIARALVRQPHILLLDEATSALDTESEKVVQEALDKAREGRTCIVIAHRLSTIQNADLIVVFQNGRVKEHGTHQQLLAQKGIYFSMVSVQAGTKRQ
Sequence of Multidrug resistance-associated protein 1 (P33527 whole entry): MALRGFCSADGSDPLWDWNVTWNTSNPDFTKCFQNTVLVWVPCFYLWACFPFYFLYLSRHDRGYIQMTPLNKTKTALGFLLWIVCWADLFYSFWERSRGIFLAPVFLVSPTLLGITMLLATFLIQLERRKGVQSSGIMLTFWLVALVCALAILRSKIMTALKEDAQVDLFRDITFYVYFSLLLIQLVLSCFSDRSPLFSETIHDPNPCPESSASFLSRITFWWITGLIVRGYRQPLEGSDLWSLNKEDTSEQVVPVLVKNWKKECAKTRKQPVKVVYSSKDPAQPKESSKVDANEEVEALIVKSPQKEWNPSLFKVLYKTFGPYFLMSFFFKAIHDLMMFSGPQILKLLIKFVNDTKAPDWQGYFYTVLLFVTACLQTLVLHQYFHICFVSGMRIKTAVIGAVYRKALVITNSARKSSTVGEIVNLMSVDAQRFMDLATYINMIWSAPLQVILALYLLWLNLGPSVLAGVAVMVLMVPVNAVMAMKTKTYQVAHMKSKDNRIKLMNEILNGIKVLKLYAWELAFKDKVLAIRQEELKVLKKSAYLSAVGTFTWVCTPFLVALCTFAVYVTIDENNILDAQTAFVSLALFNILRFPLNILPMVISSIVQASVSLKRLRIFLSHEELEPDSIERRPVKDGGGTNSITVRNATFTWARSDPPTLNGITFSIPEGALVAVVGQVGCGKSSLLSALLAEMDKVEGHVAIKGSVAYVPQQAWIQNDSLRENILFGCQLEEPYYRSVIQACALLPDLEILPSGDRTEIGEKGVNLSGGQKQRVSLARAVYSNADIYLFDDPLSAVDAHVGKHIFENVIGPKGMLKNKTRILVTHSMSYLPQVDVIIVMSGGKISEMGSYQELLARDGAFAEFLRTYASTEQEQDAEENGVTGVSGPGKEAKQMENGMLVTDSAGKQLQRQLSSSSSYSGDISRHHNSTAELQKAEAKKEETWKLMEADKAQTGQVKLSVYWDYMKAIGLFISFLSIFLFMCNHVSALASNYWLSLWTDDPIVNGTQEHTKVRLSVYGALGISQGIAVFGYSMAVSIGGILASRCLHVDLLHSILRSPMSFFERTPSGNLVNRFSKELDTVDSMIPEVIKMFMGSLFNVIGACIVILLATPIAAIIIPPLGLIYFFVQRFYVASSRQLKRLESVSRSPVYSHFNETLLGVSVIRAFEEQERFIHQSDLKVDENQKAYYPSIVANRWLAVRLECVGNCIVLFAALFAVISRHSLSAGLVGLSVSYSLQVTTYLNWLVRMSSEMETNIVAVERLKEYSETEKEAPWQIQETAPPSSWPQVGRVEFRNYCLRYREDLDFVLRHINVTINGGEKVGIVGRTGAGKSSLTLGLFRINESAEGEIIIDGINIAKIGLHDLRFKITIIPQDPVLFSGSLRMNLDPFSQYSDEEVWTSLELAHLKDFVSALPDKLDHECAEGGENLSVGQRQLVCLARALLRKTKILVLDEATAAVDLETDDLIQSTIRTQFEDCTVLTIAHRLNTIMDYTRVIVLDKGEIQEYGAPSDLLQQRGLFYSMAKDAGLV

What does the source list for `COc1cc(/C=C/C(=O)CC(=O)/C=C/c2ccc(O)cc2)ccc1O`?
IC50 [1]: 1.56 µM; IC50 [2]: 1.56 µM

For `O=C(Nc1ccc(F)cc1)c1sccc1Nc1cccc2c1OCCO2`, which EC50 [3] is on record?
The EC50 was 35 µM.

Which EC50 [3] does the source give for `O=C(Nc1ccc(F)cc1)c1sccc1Nc1cccc2c1OCO2` here?
The EC50 was 35 µM.

Which results are given for `C=C1[C@H](OC(=O)C(C)C)C[C@@H](OC(=O)c2cccnc2)C(C)(C)/C=C/[C@@H](C)C(=O)[C@@]2(OC(C)=O)C[C@H](C)[C@H](OC(C)=O)[C@@H]2[C@H]1OC(C)=O`?
IC5 [4]: 1.8 µM; IC50 [5]: 4.8 µM

Which IC50 [6] does the source give for `C#CCn1c(-c2ccc(OC)cc2)nc2cc(Br)cnc21` here?
The IC50 was 0.2 µM.

Which IC50 [7] does the source give for `O=C(C(C(=O)C(F)(F)C(F)(F)F)=P(c1ccccc1)(c1ccccc1)c1ccccc1)c1ccccc1` here?
Its IC50 is 39.4 µg/mL (≈ 74.7 µM).

Which IC50 [7] does the source give for `O=C(C(C(=O)C(F)(F)C(F)(F)C(F)(F)F)=P(c1ccccc1)(c1ccccc1)c1ccccc1)c1ccccc1` here?
Its IC50 is 42.4 µg/mL (≈ 73.5 µM).

For `O=C(C(C(=O)C(F)(F)F)=P(c1ccccc1)(c1ccccc1)c1ccccc1)c1ccccc1`, which IC50 [7] is on record?
The IC50 was 37 µg/mL (≈ 77.7 µM).

Which “fold change (FC)” value [8] does the source give for `CCCN(CCC)S(=O)(=O)c1ccc(C(=O)CC[C@H](N)C(=O)O)cc1` here?
The value was 3.

And the “fold change (FC)” value [9]?
The value was 3.

And the “fold change (FC)” value [10]?
The value was 3.

With `COc1ccc(CCC2c3cc(OCc4ccccc4)c(OC)cc3CCN2C)cc1OCc1ccccc1` (racemic) as the compound, how does the IC50 [11] read?
The IC50 was 15.1 µM.

And the IC50 [12]?
Its IC50 is 11.5 µM.

Which “fold change (FC)” value [13] does the source give for `O=C(O)/C=C/c1ccc(O)c(O)c1` [CAFFEIC ACID] here?
Its value is 3.9.

What about the “fold change (FC)” value [14] of the same compound?
Its value is 4.96.

What about the “fold change (FC)” value [15] of the same compound?
The value was 15.11.

And the IC50 [16]?
The IC50 was 0.198 µM.

What about the IC50 [17] of the same compound?
The IC50 was 0.125 µM.

And the IC50 [18]?
Its IC50 is 0.597 µM.

What does the source list for `C/C=C/C[C@@H](C)[C@@H](O)[C@H]1C(=O)N[C@@H](CC)C(=O)N(C)CC(=O)N(C)[C@@H](CC(C)C)C(=O)N[C@@H](C(C)C)C(=O)N(C)[C@@H](CC(C)C)C(=O)N[C@@H](C)C(=O)N[C@H](C)C(=O)N(C)[C@@H](CC(C)C)C(=O)N(C)[C@@H](CC(C)C)C(=O)N(C)[C@@H](C(C)C)C(=O)N1C` [CYCLOSPORINE]?
IC50 [11]: 7.95 µM; IC50 [12]: 23.9 µM
